This is an account of results in ChEMBL document CHEMBL1126610, “Amidinium cation as a mimic of allylic carbocation: synthesis and squalene synthetase inhibitory activity of an amidinium analog of a carbocation intermediate” (J Med Chem, 1993).

As a reminder, the IC50 is the concentration needed to halve the response being measured.

The target in experiment [1] is T1, Squalene synthase (Rattus norvegicus, UniProt Q02769).
T1 sequence (Q02769 whole entry): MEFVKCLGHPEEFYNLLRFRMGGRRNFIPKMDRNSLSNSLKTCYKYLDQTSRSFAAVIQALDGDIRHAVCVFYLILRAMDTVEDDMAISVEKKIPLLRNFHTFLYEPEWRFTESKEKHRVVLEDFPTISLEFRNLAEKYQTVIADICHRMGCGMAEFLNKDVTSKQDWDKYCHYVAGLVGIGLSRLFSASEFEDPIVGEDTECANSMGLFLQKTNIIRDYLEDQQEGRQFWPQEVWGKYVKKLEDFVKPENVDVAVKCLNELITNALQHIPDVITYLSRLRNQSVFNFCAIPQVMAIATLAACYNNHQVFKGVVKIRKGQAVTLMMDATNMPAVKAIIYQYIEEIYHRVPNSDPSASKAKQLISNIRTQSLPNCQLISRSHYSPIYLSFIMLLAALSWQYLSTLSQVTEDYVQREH
Put plainly: Inhibitory activity against squalene synthetase in the presence of inorganic pyrophosphate in rat liver microsomal assay. The experiment is classed as microsomes. (In general: Microsomes from liver hold many membrane-bound enzymes, among them those of drug oxidation.)

Experiment [2] has as its target T1, Squalene synthase. Put plainly: Inhibitory activity against squalene synthetase in rat liver microsomal assay. The experiment is classed as microsomes.

Turning to `CC(C)=CCC/C(C)=C/CC/C(C)=C/C/N=C/N(C)CC/C=C(\C)CCC=C(C)C`, the IC50 in experiment [1] is 0.1 µM; in experiment [2], 6.9 µM.
